Literature values as cited in patent US20230210830A1 (ALKEM LABORATORIES LIMITED, priority 2022, published 2023).

Columns and labels:
[1] = Strongest Basic
[2] = humans
[3] = system: aneurysmal subarachnoid hemorrhage (aSAH); conditions: oral administration; patients after aSAH; Ehrlich et al. 2019

Structure (SMILES): COCCOC(=O)C1=C(C)NC(C)=C(C(=O)OC(C)C)C1c1cccc([N+](=O)[O-])c1 (stereo not drawn) [nimodipine, isopropyl 2-methoxyethyl 1,4-dihydro-2,6-dimethyl-4-(m-nitrophenyl)-3,5-pyridinedicarboxylate]
- solubility in organic solvents (ethanol, polyethylene glycol 400, dimethyl sulfoxide (DMSO), and chloroform): soluble
- solubility in water (water): insoluble
- pKa [1]: 5.41
- bioavailability [2]: 12%
- t1/2 ([2]; after oral administration): 90 min
- clinical outcome [3]: improved clinical outcome
